Source: patent US20230219898A1, “COMPOUNDS AND METHODS FOR BLOCKING APOPTOSIS AND INDUCING AUTOPHAGY” (President and Fellows of Harvard College, priority 2020, published 2023)

Columns and labels:
RIPK1 in complex I = test: RIPK1 activation in complex I of TNFα-stimulated MEFs; assay type: cell-based, mouse; conditions: 10 μM
Method: Cells were seeded in 15 cm dishes and treated as indicated with Flag-TNFα ([…]). To terminate treatment, media was removed and plates were washed with 50 mL of ice cold PBS. Plates were frozen at −80C until all time points were acquired. Plates were thawed on ice and cells were lysed in 0.5% NP-40 lysis buffer (50 mM Tris-HCl pH 7.5, 150 mM NaCl and 0.5% NP-40) supplemented with protease inhibitors and N-Ethylmaleimide (2.5 mg/ml). Cell lysates were rotated at 4° C. for 30 min then clarified at 4° C. at 14,000 rpm for 30 min. Proteins were immunoprecipitated from cleared protein lysates with 20 μl of anti-Flag M2 beads (Sigma) with rotation overnight at 4° C. 4×washes in 0.5% NP-40 buffer with N-Ethylmaleimide were performed, and samples eluted by boiling in 50 μl 1×SDS loading buffer. For complex-II purification cells were seeded in 10 cm dishes and treated as indicated using media containing TNFα (10 ng/ml) and zVAD (20 μM). Cells were lysed on ice in 0.5% NP-40 lysis buffer. Cell lysates were rotated at 4C for 30 min then clarified at 4C at 14,000 rpm for 10 min. 20 μl of protein G Sepharose (Sigma), after pre-blocking for 1 h with lysis buffer containing 1% BSA, were incubated with FADD antibody ([…]) and the mixture was incubated in rotation with cleared protein lysates 4 h at 4C. […]

His-TRADD-N = target: T1, His-TRADD-N (Homo sapiens, UniProt Q15628); test: Thermal shift assay with His-TRADD-N; assay type: binding
T1 construct: expression constructs encoding Flag-TRADD-N(1-179) and HA-TRADD-C(180-312); made in house; host or cells: E. coli BL21 (DE3), pET-28a
T1 sequence (Q15628 1-179): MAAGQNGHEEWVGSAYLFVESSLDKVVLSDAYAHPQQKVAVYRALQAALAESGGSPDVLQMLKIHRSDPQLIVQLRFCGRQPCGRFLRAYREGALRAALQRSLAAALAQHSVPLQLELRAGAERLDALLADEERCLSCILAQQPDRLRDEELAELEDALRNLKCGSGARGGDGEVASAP
Method: Recombinant WT and mutant His-TRADD-N(aal-179) protein fragment was expressed in BL21 (DE3) E. coli after induction with 0.5 mM IPTG overnight at 16C. ^15N-labeled TRADD-N domain protein was purified from E. co/i grown at 16C in minimal medium. Bacteria were harvested and disrupted by a high-pressure homogenizer and purified by Ni^2+ affinity resin (GE Healthcare). All proteins were further purified by size exclusion chromatograph on a Superdex 75 column (GE Healthcare) in a buffer containing 20 mM imidazole (pH6.6), 200 mM NaCl, 20 mM DTT and 0.05% NaN3. All NMR samples were in the same buffer at concentrations between 0.2-0.4 mM with 90% H2O/10% D2O. […]
To determine stability, purified proteins were made to a final concentration of 1 μg/l. […] The reaction was run from 25C, ramping up in increments of 0.05° C./s to a final temperature of 95C with fluorescence detection throughout the experiment to generate a dataset. Melting temperature of the protein (Tm) was determined by performing non-linear fitting of the dataset to a Boltzmann Sigmoidal curve in GraphPad Prism with the following equation: Y=Bottom+(Top-Bottom)/[1+exp(Tm-X/Slope)], where Y=fluorescence emission in arbitrary units; X=temperature; Bottom=baseline fluorescence at low temperature; Top=maximal fluorescence at top of the dataset; Slope=describes the steepness of the curve, with larger values denoting shallower curves.

[1] = tested on: TRADD-N mutants (Y16A, F18A, I72A, R119A, G121A); test: Thermal shift assay with His-TRADD-N mutants; assay type: binding, human
Method: To determine stability, purified proteins were made to a final concentration of […]. SYPRO Orange dye was added to the protein to make a final concentration of 2×. Compounds were added in the mix with a final concentration of 250 μM or as indicated and incubated at 4C for 1 h. The experiments were performed in 384-well plates specific for real-time PCR instrument with a total volume of 20 μl/well. The assay plate was covered with a sheet of optically clear adhesive to seal each well. The assay plate was centrifuged at 800×g for 2 min at 25C to collect solutions in the bottom of the well and remove bubbles. The assay plate was placed into the Applied Biosystems QuantStudio 6 Real-Time PCR System. The reaction was run from 25C, ramping up in increments of 0.05° C./s to a final temperature of 95C with fluorescence detection throughout the experiment to generate a dataset. Melting temperature of the protein (Tm) was determined by performing non-linear fitting of the dataset to a Boltzmann Sigmoidal curve in GraphPad Prism with the following equation: Y=Bottom+(Top-Bottom)/[1+exp(Tm-X/Slope)], where Y=fluorescence emission in arbitrary units; X=temperature; Bottom=baseline fluorescence at low temperature; Top=maximal fluorescence at top of the dataset; Slope=describes the steepness of the curve, with larger values denoting shallower curves.

## O=C(CSC1=NCCN1)NC1CCCCCC1 [ICCB-19]
RIPK1 in complex I
  activation of RIPK1 in complex I induced by TNFα: reduced the rapid activation of RIPK1

## CN1CCN=C1SC(C(=O)NC1CCCCCC1)c1ccccc1 (stereo not drawn) [Compound 30]
His-TRADD-N
  increase of Tm of His-TRADD-N: 3.7 °C
[1]
  binding with recombinant TRADD-N mutants: reduced relative to WT
